Test results published in patent publication US20240217951A1, “PCSK9 INHIBITORS AND METHODS OF USE THEREOF” (AstraZeneca AB, priority 2022, published 2024).

Tests used:
PCSK9 = PCSK9 (Homo sapiens, UniProt Q8NBP7, G670E/V474I); assay: biochemical
[1] = target: T1, potassium ion channel hERG (human Ether-á-go-go-Related Gene) (Homo sapiens, UniProt Q12809); assay: Assay 5 - hERG assay (SyncroPatch 384PE patch clamp, CHO cells); assay type: cell-based; conditions: geometric mean; CHO cells over-expressing hERG; read-out: Assay 5 (hERG Hu CHO IF EPh CR-Syncro) GMean IC50
T1 construct: expressed in transfected cells; host or cells: Chinese hamster ovary K1 (CHO)
Experimental: Assay 5—hERG Assay (Human Ether-á-go-go-Related Gene)
This assay (human Ether-á-go-go-Related Gene) measures activity of the compounds at the potassium ion channel hERG (human Ether-á-go-go-Related Gene).
Experiments were performed on the SyncroPatch 384PE high throughput patch clamp platform at room temperature and medium resistance chips with 4 patch holes per site. Chinese hamster ovary K1 (CHO) cell lines over-expressing the ion channel of choice (hERG) were used in assay-ready format and kept in liquid nitrogen or were used from live culture. Cells were either thawed and diluted in HBSS or were detached from flasks and resuspended in HBSS. HBSS comprised 140 mM NaCl, 4 mM KCl, 10 mM HEPES and 5 mM Glucose (pH7.4). The internal patch clamp solution was KF 120 mM, KCl 20 mM, HEPES 10 mM, EGTA 10 mM, and 25 PM Escin (pH 7.2). After the sealing process was complete, the external solution was exchanged for external patch clamp solution comprising NaCl 80 mM, KCl 4 mM, HEPES 10 mM, CaCl2 2 mM, MgCl2 1 mM, glucose 5 mM, and NMDG 60 mM (pH 7.4). All solutions were stored at room temperature, except Escin, which was stored at 4° C. All test compounds were dispensed in greiner-bio 384 well plates and tested in a 6 point cumulative assay (final DMSO concentration 0.33%). Only wells that passed previously agreed acceptance criteria for this platform were used in this analysis (30 MegaOhm seal resistance, Z prime >0.4 and current size >0.2 nA).

[2] = target: GSK3β (Glycogen synthase kinase-3 beta) (Homo sapiens, UniProt P49841); assay: Assay 6 - GSK3β assay (ThermoFisher Z-Lyte); assay type: biochemical; conditions: geometric mean; ATP Conc: 10 μM; read-out: Assay 6 (GSK3β FRET-Z-Lyte CR) GMean IC50 (μM) ATP Conc: 10
Experimental: Assay 6—GSK3β Assay (ThermoFisher Assay)
This assay measures the activity of the compounds at GSK3β (Glycogen synthase kinase-3 beta).
The test compounds were screened in 1% DMSO (final) in the well. For 10 point titrations, 3-fold serial dilutions are conducted from the starting concentration of 10 μM.
Bar-coded Corning, low volume NBS, black 384-well plate • 1. 2.5 μL—4× Test Compound or 100 nL 100× plus 2.4 μL kinase buffer • 2. 5 μL—2× Peptide/Kinase Mixture • 3. 2.5 μL—4×ATP Solution • 4. 30-second plate shake • 5. 60-minute Kinase Reaction incubation at room temperature • 6. 5 μL—Development Reagent Solution • 7. 30-second plate shake • 8. 60-minute Development Reaction incubation at room temperature • 9. Read on fluorescence plate reader and analyse the data
In step 2, the 2×GSK3β (GSK3 beta)/Ser/Thr (Glycogen synthase kinase-3 beta/Serine/Threonine) 09 mixture is prepared in 50 mM HEPES (4-(2-hydroxyethyl)-1-piperazineethanesulfonic acid) pH 7.5, 0.01% BRIJ-35, 10 mM MgCl2, 1 mM EGTA (egtazic acid). The final 10 μL Kinase Reaction consists of 0.22-0.92 ng GSK3β (GSK3 beta) and 2 μM Ser/Thr 09 in 50 mM HEPES pH 7.5, 0.01% BRIJ-35, 10 mM MgCl2, 1 mM EGTA.
In step 3 the ATP Solution is diluted to a 4× working concentration in Kinase Buffer (50 mM HEPES pH 7.5, 0.01% BRIJ-35, 10 mM MgCl2, 1 mM EGTA).
In Step 6 the Development Reagent is diluted 1:512 in Development Buffer (10× Novel PKC Lipid Mix: 2 mg/mL Phosphatidyl Serine, 0.2 mg/mL DAG in 20 mM HEPES, pH 7.4, 0.3% CHAPS).
SelectScreen® Kinase Profiling Service uses XLfit from IDBS. The dose response curve is curve fit to model number 205 (sigmoidal dose-response model).

PCSK9, sequence (Q8NBP7 with tags, fused parts or gaps V474I/G670E): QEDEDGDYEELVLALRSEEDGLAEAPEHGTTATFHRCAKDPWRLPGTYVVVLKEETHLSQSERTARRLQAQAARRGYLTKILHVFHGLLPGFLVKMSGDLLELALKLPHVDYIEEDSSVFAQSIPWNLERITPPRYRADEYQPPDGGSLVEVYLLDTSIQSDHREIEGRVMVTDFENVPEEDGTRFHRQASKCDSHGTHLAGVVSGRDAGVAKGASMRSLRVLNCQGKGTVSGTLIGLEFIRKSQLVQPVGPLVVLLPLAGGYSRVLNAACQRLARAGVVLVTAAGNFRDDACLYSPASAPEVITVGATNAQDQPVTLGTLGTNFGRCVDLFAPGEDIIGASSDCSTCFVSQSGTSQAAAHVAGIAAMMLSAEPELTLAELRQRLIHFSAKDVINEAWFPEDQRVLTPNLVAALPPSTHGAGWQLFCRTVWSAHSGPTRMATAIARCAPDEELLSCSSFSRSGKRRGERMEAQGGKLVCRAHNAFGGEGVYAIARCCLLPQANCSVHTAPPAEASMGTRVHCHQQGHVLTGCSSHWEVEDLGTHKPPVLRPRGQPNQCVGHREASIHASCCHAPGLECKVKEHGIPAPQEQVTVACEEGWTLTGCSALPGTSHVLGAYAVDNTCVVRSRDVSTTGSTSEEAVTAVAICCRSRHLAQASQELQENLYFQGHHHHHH
GSK3β (Glycogen synthase kinase-3 beta), sequence (P49841 whole entry): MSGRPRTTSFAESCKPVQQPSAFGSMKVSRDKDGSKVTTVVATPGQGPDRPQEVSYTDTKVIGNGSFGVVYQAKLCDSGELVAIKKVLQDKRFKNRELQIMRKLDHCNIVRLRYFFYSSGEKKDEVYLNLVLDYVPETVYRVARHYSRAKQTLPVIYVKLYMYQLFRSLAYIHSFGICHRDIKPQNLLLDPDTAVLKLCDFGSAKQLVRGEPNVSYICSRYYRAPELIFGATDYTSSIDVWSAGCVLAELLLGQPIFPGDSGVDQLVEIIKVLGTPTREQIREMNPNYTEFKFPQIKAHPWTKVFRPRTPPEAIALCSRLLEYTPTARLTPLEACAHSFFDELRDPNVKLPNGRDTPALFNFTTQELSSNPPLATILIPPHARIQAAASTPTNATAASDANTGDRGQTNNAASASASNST
T1 sequence (Q12809 whole entry): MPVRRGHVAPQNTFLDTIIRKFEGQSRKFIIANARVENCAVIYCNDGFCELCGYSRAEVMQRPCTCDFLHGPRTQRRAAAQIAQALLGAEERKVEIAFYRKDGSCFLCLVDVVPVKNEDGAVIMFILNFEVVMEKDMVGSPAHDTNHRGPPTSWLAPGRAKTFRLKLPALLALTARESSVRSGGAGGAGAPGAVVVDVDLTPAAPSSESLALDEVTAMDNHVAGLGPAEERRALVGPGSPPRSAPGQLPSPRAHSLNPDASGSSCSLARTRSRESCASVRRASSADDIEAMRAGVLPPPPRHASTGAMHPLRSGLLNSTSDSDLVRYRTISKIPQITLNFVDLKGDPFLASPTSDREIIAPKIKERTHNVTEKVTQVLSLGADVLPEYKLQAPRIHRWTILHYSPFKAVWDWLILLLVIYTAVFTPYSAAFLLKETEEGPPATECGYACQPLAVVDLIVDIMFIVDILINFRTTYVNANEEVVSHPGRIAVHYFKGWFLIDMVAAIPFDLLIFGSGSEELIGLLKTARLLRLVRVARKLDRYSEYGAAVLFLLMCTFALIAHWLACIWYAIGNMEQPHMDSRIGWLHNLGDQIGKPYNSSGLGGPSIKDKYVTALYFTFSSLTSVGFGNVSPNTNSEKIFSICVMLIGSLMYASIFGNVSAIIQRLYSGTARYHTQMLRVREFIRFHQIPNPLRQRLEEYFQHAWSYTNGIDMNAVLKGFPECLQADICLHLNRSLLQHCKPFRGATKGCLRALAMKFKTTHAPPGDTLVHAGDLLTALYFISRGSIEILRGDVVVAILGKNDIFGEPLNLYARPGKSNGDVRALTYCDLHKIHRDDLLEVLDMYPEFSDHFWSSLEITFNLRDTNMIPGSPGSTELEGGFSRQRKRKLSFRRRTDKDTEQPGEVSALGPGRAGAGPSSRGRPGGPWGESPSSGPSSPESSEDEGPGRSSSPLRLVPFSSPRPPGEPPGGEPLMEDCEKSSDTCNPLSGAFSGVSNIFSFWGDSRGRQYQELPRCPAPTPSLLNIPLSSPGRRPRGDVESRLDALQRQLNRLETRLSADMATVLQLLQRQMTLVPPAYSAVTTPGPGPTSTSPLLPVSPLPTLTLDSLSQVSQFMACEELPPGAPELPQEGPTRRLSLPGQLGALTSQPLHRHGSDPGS

| SMILES | IC50 (PCSK9) | IC50 [1] | IC50 [2] |
| --- | --- | --- | --- |
| C[C@@]12C[C@]1(C)C(=O)N(c1ccc(N[C@H]3CC[C@H](Nc4cnc(OC(F)F)cn4)C3)nc1)C2=O [Example 80, (cis)-3-(6-(((1S,3S)-3-((5-(Difluoromethoxy)pyrazin-2-yl)amino)cyclopentyl)amino)pyridin-3-yl)-1,5-dimethyl-3-azabicyclo[3.1.0]hexane-2,4-dione] | 1.03 µM | > 40 µM | > 10 µM |
| O=c1ccc(Cl)cn1-c1ccc(N[C@H]2CC[C@H](Nc3cnc(OC(F)F)cn3)C2)nc1 [Example 83, 5-Chloro-6′-(((1S,3S)-3-((5-(difluoromethoxy)pyrazin-2-yl)amino)cyclopentyl)amino)-2H-[1,3′-bipyridin]-2-one] | 0.044 µM | 5 µM | > 10 µM |
| N#Cc1ccc(=O)n(-c2ccc(N[C@H]3CC[C@H](Nc4cnc(OC(F)F)cn4)C3)nc2)c1 [Example 89, 6′-(((1S,3S)-3-((5-(Difluoromethoxy)pyrazin-2-yl)amino)cyclopentyl)amino)-2-oxo-2H-[1,3′-bipyridine]-5-carbonitrile] | 0.121 µM | 6.8 µM | > 10 µM |
| N#Cc1cccn(-c2ccc(N[C@H]3CC[C@H](Nc4cnc(OC(F)F)cn4)C3)nc2)c1=O [Example 90, 6′-(((1S,3S)-3-((5-(Difluoromethoxy)pyrazin-2-yl)amino)cyclopentyl)amino)-2-oxo-2H-[1,3′-bipyridine]-3-carbonitrile] | 0.015 µM | 11.7 µM | > 10 µM |
| Cc1nc(N[C@H]2CC[C@H](Nc3ccc(-n4ccccc4=O)cn3)C2)cnc1OC(F)F [Example 91, 6′-(((1S,3S)-3-((5-(Difluoromethoxy)-6-methylpyrazin-2-yl)amino)cyclopentyl)amino)-2H-[1,3′-bipyridin]-2-one] | 0.436 µM | 9.6 µM | > 10 µM |
| CN1CC(=O)N(c2ccc(N[C@H]3CC[C@H](Nc4cnc(OC(F)F)cn4)C3)nc2)C1=O [Example 93, 3-(6-(((1S,3S)-3-((5-(Difluoromethoxy)pyrazin-2-yl)amino)cyclopentyl)amino)pyridin-3-yl)-1-methylimidazolidine-2,4-dione] | 0.087 µM | > 40 µM | > 10 µM |
| COc1ccc(=O)n(-c2ccc(N[C@H]3CC[C@H](Nc4cnc(OC(F)F)cn4)C3)nc2)c1 [Example 95, 6′-(((1S,3S)-3-((5-(Difluoromethoxy)pyrazin-2-yl)amino)cyclopentyl)amino)-5-methoxy-2H-[1,3′-bipyridin]-2-one] | 0.114 µM | 11.1 µM | 0.115 µM |
| N#Cc1ccc(=O)n(-c2ccc(N[C@H]3CC[C@H](Nc4cnc(Cl)cn4)C3)nc2)c1 [Example 99, 6′-(((1S,3S)-3-((5-Chloropyrazin-2-yl)amino)cyclopentyl)amino)-2-oxo-2H-[1,3′-bipyridine]-5-carbonitrile] | 0.04 µM | 19.9 µM | > 10 µM |
| O=c1ccc(Cl)cn1-c1ccc(N[C@H]2CC[C@H](Nc3cnc(C4CC4)cn3)C2)nc1 [Example 109, 5-Chloro-6′-(((1S,3S)-3-((5-Cyclopropylpyrazin-2-yl)amino)cyclopentyl)amino)-2H-[1,3′-bipyridin]-2-one] | 0.041 µM | 19.9 µM | > 10 µM |
| N#Cc1ccc(=O)n(-c2ccc(N[C@H]3CC[C@H](Nc4cnc(C5CC5)cn4)C3)nc2)c1 [Example 110, 6′-(((1S,3S)-3-((5-Cyclopropylpyrazin-2-yl)amino)cyclopentyl)amino)-2-oxo-2H-[1,3′-bipyridine]-5-carbonitrile] | 0.048 µM | 25.3 µM | > 10 µM |
| CNC(=O)c1cnc(N[C@H]2CC[C@H](Nc3ccc(-n4cccc(Cl)c4=O)cn3)C2)cn1 [Example 149, 5-(((1S,3S)-3-((3-Chloro-2-oxo-2H-[1,3′-bipyridin]-6′-yl)amino)cyclopentyl)amino)-N-methylpyrazine-2-carboxamide] | 3.96 µM | > 40.1 µM | > 10 µM |
| CSc1cnc(N[C@H]2CC[C@H](Nc3ccc(-n4ccccc4=O)cn3)C2)cn1 [Example 162, 6′-(((1S,3S)-3-((5-(Methylthio)pyrazin-2-yl)amino)cyclopentyl)amino)-2H-[1,3′-bipyridin]-2-one] | 0.042 µM | > 40.1 µM | > 10 µM |
| CCSc1cnc(N[C@H]2CC[C@H](Nc3ccc(-n4ccccc4=O)cn3)C2)cn1 [Example 163, 6′-(((1S,3S)-3-((5-(Ethylthio)pyrazin-2-yl)amino)cyclopentyl)amino)-2H-[1,3′-bipyridin]-2-one] | 0.14 µM | 30.7 µM | > 10 µM |
| COC(=O)CSc1cnc(N[C@H]2CC[C@H](Nc3ccc(-n4ccccc4=O)cn3)C2)cn1 [Example 164, Methyl 2-((5-(((1S,3S)-3-((2-oxo-2H-[1,3′-bipyridin]-6′-yl)amino)cyclopentyl)amino)pyrazin-2-yl)thio)acetate] | 0.451 µM | > 40.1 µM | > 10 µM |
| Cc1cnc(N[C@H]2CC[C@H](Nc3ccc(-n4cccc(-c5c[nH]nn5)c4=O)cn3)C2)cn1 [Example 205, 6′-(((1S,3S)-3-((5-Methylpyrazin-2-yl)amino)cyclopentyl)amino)-3-(1H-1,2,3-triazol-4-yl)-2H-[1,3′-bipyridin]-2-one] | 0.007 µM | > 40.1 µM | > 10 µM |
| Cc1cnc(N[C@H]2CC[C@H](Nc3ccc(-n4cc(-c5cnn(C)c5)ccc4=O)cn3)C2)cn1 [Example 206, 5-(1-Methyl-1H-pyrazol-4-yl)-6′-(((1S,3S)-3-((5-methylpyrazin-2-yl)amino)cyclopentyl)amino)-2H-[1,3′-bipyridin]-2-one] | 0.022 µM | > 40.1 µM | > 10 µM |
| Cc1cnc(N[C@H]2CC[C@H](Nc3ccc(-n4nccc(C)c4=O)cn3)C2)cn1 [Example 227, 4-Methyl-2-(6-(((1S,3S)-3-((5-methylpyrazin-2-yl)amino)cyclopentyl)amino)pyridin-3-yl)pyridazin-3 (2H)-one] | 0.012 µM | > 40.1 µM | > 10 µM |
| Cc1cnc(N[C@H]2CC[C@H](Nc3ccc(-n4nc(Cl)ccc4=O)cn3)C2)cn1 [Example 233, 6-Chloro-2-(6-(((1S,3S)-3-((5-methylpyrazin-2-yl)amino)cyclopentyl)amino)pyridin-3-yl)pyridazin-3 (2H)-one] | 0.024 µM | > 40.1 µM | > 10 µM |
| O=c1[nH]ccnc1N[C@H]1CC[C@H](Nc2ccc(-n3ccccc3=O)cn2)C1 [Example 252, 6′-(((1S,3S)-3-((3-Oxo-3,4-dihydropyrazin-2-yl)amino)cyclopentyl)amino)-2H-[1,3′-bipyridin]-2-one] | 2.58 µM | > 40.1 µM | > 10 µM |
| Cc1cnc(N[C@H]2CC[C@H](Nc3ccc(-n4ccccc4=O)cn3)C2)c(=O)[nH]1 [Example 253, 6′-(((1S,3S)-3-((5-Methyl-3-oxo-3,4-dihydropyrazin-2-yl)amino)cyclopentyl)amino)-2H-[1,3′-bipyridin]-2-one] | 0.307 µM | > 40.1 µM | > 10 µM |
| Cc1cnc(N[C@H]2CC[C@H](Nc3ccc(N4C(=O)CCc5ccccc54)cn3)C2)cn1 [Example 274, 1-(6-(((1S,3S)-3-((5-Methylpyrazin-2-yl)amino)cyclopentyl)amino)pyridin-3-yl)-3,4-dihydroquinolin-2 (1H)-one] | 0.0081 µM | 17.1 µM | > 10 µM |
